# Legend:
# P. aeruginosa 125A = experiment: MIC, CLSI broth microdilution in BD Phoenix AST Broth; type: cell-based, Pseudomonas aeruginosa; details: strain 125A; for MIC: Pseudomonas aeruginosa, agent alone, 37°C, 18–22 h, three biological replicates
# Experimental: (§1) MIC for RW01 was also tested.
# (§2) FIC of RW01 (FICRW01)=MIC of RW01 in combination/MIC of RW01 alone,FIC of antibiotic (FICATB)=MIC of ATB in combination/MIC of ATB alone,FICI=FICRW01 +FICATB.
# (§3) FICI was interpreted as follows: synergistic effect if FICI is ≤0.5; additive effect if 0.5 < FICI ≤ 1.0; indifferent effect if 1.0 < FICI ≤ 2.0; and finally, antagonistic effect if FICI is >2.0. The average FICI considering the antibiotic MIC (no growth in any of the replicates) at different concentrations of RW01 was calculated ([28]).
# P. aeruginosa 125B = experiment: as above; type: cell-based, Pseudomonas aeruginosa; details: strain 125B; for MIC: Pseudomonas aeruginosa, agent alone, 37°C, 18–22 h, three biological replicates
# Experimental: as §1, §2, §3
# P. aeruginosa 41A = experiment: as above; type: cell-based, Pseudomonas aeruginosa; details: Pseudomonas aeruginosa; strain 41A; agent alone; 37°C, 18–22 h; three biological replicates
# Experimental: as §1, §2, §3
# P. aeruginosa 41B = experiment: as above; type: cell-based, Pseudomonas aeruginosa; details: Pseudomonas aeruginosa; strain 41B; agent alone; 37°C, 18–22 h; three biological replicates
# Experimental: as §1, §2, §3
# P. aeruginosa PAO1 = experiment: as above; type: cell-based, Pseudomonas aeruginosa; details: Pseudomonas aeruginosa, PAO1, strain PAO1; agent alone; 37°C, 18–22 h; three biological replicates; read-out: MIC
# Experimental: as §1, §2, §3
# P. aeruginosa PAOUW = experiment: as above; type: cell-based, Pseudomonas aeruginosa; details: Pseudomonas aeruginosa, strain PAOUW; agent alone; 37°C, 18–22 h; three biological replicates; read-out: MIC
# Experimental: as §1, §2, §3
# P. aeruginosa PAOUW∆oprF = experiment: as above; type: cell-based, Pseudomonas aeruginosa; details: Pseudomonas aeruginosa, strain PAOUWΔoprF; agent alone; 37°C, 18–22 h; three biological replicates
# Experimental: as §1, §2, §3
# P. aeruginosa PAOΔmexR = experiment: as above; type: cell-based, Pseudomonas aeruginosa; details: Pseudomonas aeruginosa
# Experimental: as §1, §2, §3
# P. aeruginosa PAOΔmexZ = experiment: as above; type: cell-based, Pseudomonas aeruginosa; details: Pseudomonas aeruginosa, strain PAOΔmexZ; agent alone; 37°C, 18–22 h; three biological replicates
# Experimental: as §1, §2, §3
# P. aeruginosa PAOΔoprM = experiment: as above; type: cell-based, Pseudomonas aeruginosa; details: Pseudomonas aeruginosa
# Experimental: as §1, §2, §3
# P. aeruginosa PAO1, WT = experiment: MIC, Sensititre custom plate; type: cell-based; details: Pseudomonas aeruginosa, PAO1, read-out: MIC, Sensititre
# Experimental: (§4) Selection of resistant mutants was performed for minocycline with and without RW01 in three independent replicates for wild-type P. aeruginosa reference strain PAO1. Tubes containing Mueller-Hinton broth (MHB) were inoculated and incubated for 24 h at 37°C. Afterward, 1/100 dilution of each tube was incubated at 37°C in MHB to late-exponential growth phase, measured by spectrophotometry at OD600. […] A control plate without antibiotic was included as inoculum control. After overnight incubation, colony counting of each treatment was performed to analyze the generation of resistant population. The mutant prevention concentration (MPC) was defined as the lowest concentration of antibiotic yielding no growth of resistant mutants. Selected mutants were checked for susceptibility profiles by using a Sensititre custom plate (Thermo Fisher Scientific, Massachusetts, USA) for Gram-negative bacteria, following the manufacturer’s instructions.
# [1] = system: PAO1 mutant MIN16_1, nalD(T43P); experiment: MIC, Sensititre custom plate; type: cell-based; details: Pseudomonas aeruginosa, PAO1, read-out: MIC, Sensititre
# Experimental: as §4
# [2] = system: PAO1 mutant MIN16_2, nalC(aa9∆4), pilQ(nt46∆1); experiment: MIC, Sensititre custom plate; type: cell-based; details: Pseudomonas aeruginosa, PAO1, read-out: MIC, Sensititre
# Experimental: as §4
# [3] = system: PAO1 mutant MIN16_3, nfxB(nt79∆14), pilB(N349K); experiment: MIC, Sensititre custom plate; type: cell-based; details: Pseudomonas aeruginosa, PAO1, read-out: MIC, Sensititre
# Experimental: as §4
# [4] = system: PAO1 mutant MIN16_4, nalC(T50P), pilM(Q62X); experiment: MIC, Sensititre custom plate; type: cell-based; details: Pseudomonas aeruginosa, PAO1, read-out: MIC, Sensititre
# Experimental: as §4
# [5] = system: PAO1 mutant MIN1_RW01_1, pmrB(Y98N); experiment: MIC, Sensititre custom plate; type: cell-based; details: Pseudomonas aeruginosa, PAO1, read-out: MIC, Sensititre
# Experimental: as §4
# [6] = system: PAO1 mutant MIN1_RW01_2, mexR(G58E), pilB(G326D), hutC(Y181X); experiment: MIC, Sensititre custom plate; type: cell-based; details: Pseudomonas aeruginosa, PAO1, read-out: MIC, Sensititre
# Experimental: as §4
# [7] = system: PAO1 mutant MIN1_RW01_3, pmrB(V215L); experiment: MIC, Sensititre custom plate; type: cell-based; details: Pseudomonas aeruginosa, PAO1, read-out: MIC, Sensititre
# Experimental: as §4
# [8] = system: PAO1 mutant MIN2_RW01_1, pmrB(V215L); experiment: MIC, Sensititre custom plate; type: cell-based; details: Pseudomonas aeruginosa, PAO1, read-out: MIC, Sensititre
# Experimental: as §4
# [9] = system: PAO1 mutant MIN2_RW01_2, pmrB(M292T); experiment: MIC, Sensititre custom plate; type: cell-based; details: Pseudomonas aeruginosa, PAO1, read-out: MIC, Sensititre
# Experimental: as §4
# [10] = system: PAO1 mutant MIN2_RW01_3, parS(V152A); experiment: MIC, Sensititre custom plate; type: cell-based; details: Pseudomonas aeruginosa, PAO1, read-out: MIC, Sensititre
# Experimental: as §4
# [11] = system: PAO1 mutant MIN2_RW01_4, pmrB(M292T); experiment: MIC, Sensititre custom plate; type: cell-based; details: Pseudomonas aeruginosa, PAO1, read-out: MIC, Sensititre
# Experimental: as §4
# [12] = system: PAO1 mutant MIN32_1, mexR(R63H), pilB(N349K), PA0646(V316G); experiment: MIC, Sensititre custom plate; type: cell-based; details: Pseudomonas aeruginosa, PAO1, read-out: MIC, Sensititre
# Experimental: as §4
# [13] = system: PAO1 mutant MIN4_RW01_1, pmrB(R429H); experiment: MIC, Sensititre custom plate; type: cell-based; details: Pseudomonas aeruginosa, PAO1, read-out: MIC, Sensititre
# Experimental: as §4
# [14] = system: PAO1 mutant MIN4_RW01_3, pmrB(M292T); experiment: MIC, Sensititre custom plate; type: cell-based; details: Pseudomonas aeruginosa, PAO1, read-out: MIC, Sensititre
# Experimental: as §4
# [15] = system: PAO1 mutant MIN4_RW01_4, pmrB(Y98N); experiment: MIC, Sensititre custom plate; type: cell-based; details: Pseudomonas aeruginosa, PAO1, read-out: MIC, Sensititre
# Experimental: as §4
# [16] = system: PAO1 mutant MIN8_1, nalD(R3C), pilM(Q62X); experiment: MIC, Sensititre custom plate; type: cell-based; details: Pseudomonas aeruginosa, PAO1, read-out: MIC, Sensititre
# Experimental: as §4
# [17] = system: PAO1 mutant MIN8_2, pilZ(nt18InsT); experiment: MIC, Sensititre custom plate; type: cell-based; details: Pseudomonas aeruginosa, PAO1, read-out: MIC, Sensititre
# Experimental: as §4
# [18] = system: PAO1 mutant MIN8_3, pilZ(nt18InsT); experiment: MIC, Sensititre custom plate; type: cell-based; details: Pseudomonas aeruginosa, PAO1, read-out: MIC, Sensititre
# Experimental: as §4
# [19] = system: PAO1 mutant MIN8_4, pilZ(nt18InsT); experiment: MIC, Sensititre custom plate; type: cell-based; details: Pseudomonas aeruginosa, PAO1, read-out: MIC, Sensititre
# Experimental: as §4
# [20] = system: PAO1 mutant MIN1_RW01_4, pmrB(F124L); experiment: microbe, parasite or virus in culture; type: cell-based; details: Pseudomonas aeruginosa, PAO1, read-out: MIC, Sensititre
# Experimental: as §4
# [21] = system: PAO1 mutant MIN4_RW01_2, pmrB(F124S); experiment: microbe, parasite or virus in culture; type: cell-based; details: Pseudomonas aeruginosa, PAO1, read-out: MIC, Sensititre
# Experimental: as §4
# [22] = antibiotic MIC alone vs with RW01 100 mg/L
structure (smiles),measurement,setting,value
"O=C(N[C@H](CO)[C@H](O)c1ccc([N+](=O)[O-])cc1)C(Cl)Cl [Chloramphenicol, chloramphenicol]",MIC,P. aeruginosa 125A,128 µg/mL
same,Potentiation (fold),P. aeruginosa 125A; [22],≥ 8 fold
same,MIC,P. aeruginosa 125B,64 µg/mL
same,Potentiation (fold),P. aeruginosa 125B; [22],≥ 8 fold
same,MIC,P. aeruginosa 41A,128 µg/mL
same,MIC,P. aeruginosa 41B,128 µg/mL
same,MIC,P. aeruginosa PAO1,32 µg/mL
same,MIC,P. aeruginosa PAOUW,> 512 µg/mL
same,MIC,P. aeruginosa PAOUW∆oprF,32 µg/mL
same,MIC,P. aeruginosa PAOΔmexR,32 µg/mL
same,MIC,P. aeruginosa PAOΔmexZ,32 µg/mL
same,MIC,P. aeruginosa PAOΔoprM,4 µg/mL
"C[C@H]1COc2c(N3CCN(C)CC3)c(F)cc3c(=O)c(C(=O)O)cn1c23 [Levofloxacin, levofloxacin]",MIC,P. aeruginosa 125A,0.5 µg/mL
same,MIC,P. aeruginosa 125B,0.5 µg/mL
same,MIC,P. aeruginosa 41A,2 µg/mL
same,MIC,P. aeruginosa 41B,1 µg/mL
same,MIC,P. aeruginosa PAO1,0.5 µg/mL
same,MIC,P. aeruginosa PAOUW,4 µg/mL
same,MIC,P. aeruginosa PAOUW∆oprF,0.5 µg/mL
same,MIC,P. aeruginosa PAOΔmexR,0.5 µg/mL
same,MIC,P. aeruginosa PAOΔmexZ,0.5 µg/mL
same,MIC,P. aeruginosa PAOΔoprM,0.125 µg/mL
"CCN[C@@H]1C[C@H](N)[C@@H](O[C@H]2OC(CN)=CC[C@H]2N)[C@H](O)[C@H]1O[C@H]1OC[C@](C)(O)[C@H](NC)[C@H]1O [Netilmicin, netilmicin]",MIC,P. aeruginosa 125A,8 µg/mL
same,MIC,P. aeruginosa 125B,8 µg/mL
same,MIC,P. aeruginosa 41A,8 µg/mL
same,MIC,P. aeruginosa 41B,8 µg/mL
same,MIC,P. aeruginosa PAO1,8 µg/mL
same,MIC,P. aeruginosa PAOUW,2 µg/mL
same,MIC,P. aeruginosa PAOUW∆oprF,8 µg/mL
same,MIC,P. aeruginosa PAOΔmexR,8 µg/mL
same,MIC,P. aeruginosa PAOΔmexZ,8 µg/mL
same,MIC,P. aeruginosa PAOΔoprM,1 µg/mL
"CCn1cc(C(=O)O)c(=O)c2cc(F)c(N3CCNCC3)cc21 [Norfloxacin, norfloxacin]",MIC,P. aeruginosa 125A,1 µg/mL
same,MIC,P. aeruginosa 125B,1 µg/mL
same,MIC,P. aeruginosa 41A,2 µg/mL
same,MIC,P. aeruginosa 41B,4 µg/mL
same,MIC,P. aeruginosa PAO1,0.5 µg/mL
same,MIC,P. aeruginosa PAOUW,4 µg/mL
same,MIC,P. aeruginosa PAOUW∆oprF,1 µg/mL
same,MIC,P. aeruginosa PAOΔmexR,1 µg/mL
same,MIC,P. aeruginosa PAOΔmexZ,1 µg/mL
same,MIC,P. aeruginosa PAOΔoprM,0.25 µg/mL
"CC1(C)S[C@@H]2[C@H](NC(=O)[C@H](C(=O)O)c3ccsc3)C(=O)N2[C@H]1C(=O)O [TIC, ticarcillin]",MIC,"P. aeruginosa PAO1, WT",16 µg/mL
same,MIC,[1],64 µg/mL
same,MIC,[2],64 µg/mL
same,MIC,[3],16 µg/mL
same,MIC,[4],64 µg/mL
same,MIC,[5],16 µg/mL
same,MIC,[6],128 µg/mL
same,MIC,[7],16 µg/mL
same,MIC,[8],64 µg/mL
same,MIC,[9],32 µg/mL
same,MIC,[10],16 µg/mL
same,MIC,[11],32 µg/mL
same,MIC,[12],128 µg/mL
same,MIC,[13],128 µg/mL
same,MIC,[14],16 µg/mL
same,MIC,[15],16 µg/mL
same,MIC,[16],64 µg/mL
same,MIC,[17],64 µg/mL
same,MIC,[18],64 µg/mL
same,MIC,[19],64 µg/mL
same,MIC,[20],16 µg/mL
same,MIC,[21],16 µg/mL

# Source: publication PMC11823630, “In vitro potentiation of tetracyclines in Pseudomonas aeruginosa by RW01, a new cyclic peptide” (Antimicrobial Agents and Chemotherapy, 2024)
